The test system of series [1] is HSV1 E377. Kind of series: microbe, parasite or virus in culture. The series is classed as cell-based, Herpes Simplex Virus 1. As for the experimental part:
(§1) Screening Assays for HSV-1, HSV-2, CMV, and VZV
(§2) Cells. Human foreskin fibroblast (HFF) cells were prepared from human foreskin tissue. The tissue was incubated at 4° C. for 4 h in Clinical Medium and then placed in phosphate buffered saline (PBS) to remove the red blood cells, and resuspended in trypsin/EDTA solution. The tissue suspension was incubated at 37° C. and gently agitated to disperse the cells, which were collected by centrifugation. Cells were resuspended in 4 ml Clinical Medium and placed in a flask and incubated at 37° C. in a humidified CO2 incubator for 24 h. The media was then replaced with fresh Clinical Medium and the cell growth was monitored daily until a confluent monolayer has formed. The HFF cells were then expanded through serial passages in standard growth medium of MEM with Earl's salts supplemented with 10% FBS and antibiotics. The cells were passaged routinely and used for assays at or below passage 10.
(§3) Primary Cytopathic Effect (CPE) Reduction Assay. Low passage (3-10) HFF cells were trypsinized, counted, and seeded into 96 well tissue culture plates in 0.1 ml of MEM supplemented with 10% FBS. The cells were then incubated for 24 h at 37° C. The media was then removed and 100 μl of MEM containing 2% FBS was added to all but the first row. In the first row, 125 μl of media containing the experimental drug was added in triplicate wells. Media alone was added to both cell and virus control wells. The drug in the first row of wells was then diluted serially 1:5 throughout the remaining. The plates were then incubated for 60 min and 100 μl of a virus suspension was added to each well, excluding cell control wells which received 100 μl of MEM. The plates were then incubated at 37° C. in a CO2 incubator for three days for HSV-1 and HSV-2, 10 days for VZV, or 14 d for CMV. After the incubation period, media was aspirated and the cells stained with crystal violet in formalin for 4 h. The stain was then removed and the plates were rinsed until all excess stain was removed. The plates were allowed to dry for 24 h and the amount of CPE in each row determined using a BioTek Multiplate Autoreader. EC50 and CC50 values were determined by comparing drug treated and untreated cells using a computer program.

In series [2] the test system is HSV2 G. Kind of series: Primary CPE reduction assay in HFF cells, HSV2 G. The series is classed as cell-based, Herpes Simplex Virus 2. As to the method: as §1, §2, §3
The test system of series [3] is mCMV Smith. As to the kind of experiment: Primary CPE reduction assay, mCMV Smith. The series is classed as cell-based, murine Cytomegalovirus. The settings on record: for EC50: Murid betaherpesvirus 1, read-out: EC50 (50% reduction in the Cytopathic Effect of the virus). A general note: Protection from cytopathic effect is a common read-out in antiviral testing.
Series [4] deals with hCMV1 AD169. Kind of series: Primary CPE reduction assay in HFF cells, hCMV AD169. The series is classed as cell-based, human Cytomegalovirus. As for the experimental part:
as §1, §2, §3

Series [5] deals with VZV Ellen. Kind of series: microbe, parasite or virus in culture. The series is classed as cell-based, Vericella Zoster Virus. As to the method: as §1, §2, §3
Series [6] relates to hCMV2 GDGRK17. Kind of series: Primary CPE reduction assay in HFF cells, hCMV GDGRK17. The series is classed as cell-based, human Cytomegalovirus. The note with it: for EC50: Human betaherpesvirus 5, HFF, read-out: EC50 (50% reduction in the Cytopathic Effect of the virus); for TI (therapeutic index derived from EC50/CC50): hCMV2 GDGRK17, HFF cells. As to the method:
as §1, §2, §3

Series [7] relates to Human Cytomegalovirus Strain AD169. Kind of series: Additional study versus Human Cytomegalovirus Strain AD169 in HFF cells (procedures of US 2011/0263535 A1). The series is classed as cell-based. As for the experimental part:
Additional studies in HFF cells were performed using the procedures as outlined in US Patent Application Publication No: 2011/0263535 A1 with compounds of 120, 121, and 122. Each of the compounds were tested versus Human Cytomegalovirus Strain AD169 in HFF cells using ganciclovir as a comparator.

Series [8] deals with HSV1 strain DM2.1. Kind of series: Primary CPE reduction assay in HFF cells, HSV1 strain DM2.1. Type of series: cell-based, Herpes Simplex Virus 1. As to the method: as §1, §2
Primary Cytopathic Effect (CPE) Reduction Assay. Low passage (3-10) HFF cells were trypsinized, counted, and seeded into 96 well tissue culture plates in 0.1 ml of MEM supplemented with 10% FBS. […] The plates were allowed to dry for 24 h and the amount of CPE in each row determined using a BioTek Multiplate Autoreader. EC50 and CC50 values were determined by comparing drug treated and untreated cells using a computer program.

The mark [9] stands for this setting: Human alphaherpesvirus 1, read-out: EC50 (50% reduction in the Cytopathic Effect of the virus), HSV1 E377, HFF cells.
The mark [10] stands for this setting: Human alphaherpesvirus 2, read-out: EC50 (50% reduction in the Cytopathic Effect of the virus), HSV2 G, HFF cells.
Where [11] appears, read: Human betaherpesvirus 5, read-out: EC50 (50% reduction in the Cytopathic Effect of the virus), hCMV1 AD169, HFF cells.
[12] abbreviates: Human alphaherpesvirus 1, HFF, read-out: EC50 (50% reduction in the Cytopathic Effect of the virus).
Setting [13] is: Human Cytomegalovirus Strain AD169 in HFF cells.
Setting [14] is: Human betaherpesvirus 5, AD169, HFF.
[15] abbreviates: Human alphaherpesvirus 2, HFF, read-out: EC50 (50% reduction in the Cytopathic Effect of the virus).
[16] abbreviates: Human betaherpesvirus 5, AD169, HFF, read-out: EC50 (50% reduction in the Cytopathic Effect of the virus).
The mark [17] stands for this setting: Human alphaherpesvirus 3, HFF, read-out: EC50 (50% reduction in the Cytopathic Effect of the virus).

Each structure is given as a SMILES string. Read-outs that look alike come from different tables or passages of the source. Where only a bound is given, the exact number is not on record here.

Consider ten compounds from US12397058B2, “Metabolically stable prodrugs” (TSRL, Inc., priority 2018, dated 2025).

On to `Nc1nc2c(ncn2COCCO)c(=O)[nH]1` [Acyclovir, reference compound], for which the concentration giving a half-maximal response (EC50) in series [1] (setting [9]) worked out at 960 nM; in series [2] (setting [10]), 380 nM.
Take `CC1(CCCCCCCCCCCCS(=O)(=O)CCCOP(=O)(O)CO[C@H](CO)Cn2cnc(N)cc2=O)COC1` [Compound 110, Ammonium 3-((12-(3-methyloxetan-3-yl)dodecyl)sulfonyl)propyl Hydrogen ((((S)-1-(4-amino-6-oxopyrimidin-1(6H)-yl)-3-hydroxypropan-2-yl)oxy)methyl)phosphonate]: the “TI (therapeutic index derived from EC50/CC50)” value in series [1] (HSV1 E377, HFF cells) was above 313; in series [3] (mCMV Smith) it was 2213; in series [4] (hCMV1 AD169, HFF cells), 184; in series [5] (VZV Ellen, HFF cells), 225; in series [6], above 3125. Besides, the concentration for a half-maximal effect (EC50) was 160 nM in series [1] (setting [9]); below 0.3 nM in series [3] (mCMV Smith); 40 nM in series [2] (setting [10]); 10 nM in series [4] (setting [11]); 10 nM in series [5] (Human alphaherpesvirus 3, read-out: EC50 (50% reduction in the Cytopathic Effect of the virus), VZV Ellen, HFF cells); below 0.3 nM in series [6]. The “TI (therapeutic index derived from CC50/EC50)” value in series [2] (HSV2 G, HFF cells) is recorded as above 1250.
On to `CCOC(=O)P(=O)(OCCCS(=O)(=O)CCCCC1CCC1)OCCCS(=O)(=O)CCCCC1CCC1` [Compound 119, Ethyl (bis(3-((4-cyclobutylbutyl)sulfonyl)propoxy)phosphoryl)formate], for which, in series [4] (setting [11]), the concentration giving a half-maximal response (EC50) was above 30000 nM. The “TI (therapeutic index derived from EC50/CC50)” value in series [4] (hCMV1 AD169, HFF cells) was below 3.
Regarding `N.Nc1ccn(C[C@@H](CO)OCP(=O)(O)OCCCS(=O)(=O)CCCCCCCCCCC2CCC2)c(=O)n1` [Compound 120, Ammonium 3-((10-cyclobutyldecyl)sulfonyl)propyl hydrogen ((((S)-1-(4-amino-2-oxopyrimidin-1(2H)-yl)-3-hydroxypropan-2-yl)oxy)methyl)phosphonate], the “TI (therapeutic index derived from EC50/CC50)” value is reported as 149 in series [1] (HSV1 E377, HFF cells); above 3125 in series [3] (mCMV Smith); 74 in series [4] (hCMV1 AD169, HFF cells); 25 in series [5] (VZV Ellen, HFF cells); above 2772 in series [6]. Further, the EC50 in series [1] (setting [12]) is 70 nM; in series [3], below 0.3 nM; in series [2] (setting [15]) it was 10 nM; in series [4] (setting [16]) it was 8 nM; in series [5] (setting [17]), 20 nM; in series [6], below 0.3 nM. In series [7] (setting [13]), the “Therapeutic index EC90/HFF Cytotoxicity 50%” value is reported as above 37. For the same compound, in series [7] (setting [14]), the EC90 is below 20 nM. The “TI (therapeutic index derived from CC50/EC50)” value in series [2] (HSV2 G, HFF cells) is listed as above 3950.
Consider `N.Nc1ccn(C[C@@H](CO)OCP(=O)(O)OCCCS(=O)(=O)CCCCCCCCCCCCC2CCC2)c(=O)n1` [Compound 121, Ammonium 3-((12-cyclobutyldodecyl)sulfonyl)propyl hydrogen ((((S)-1-(4-amino-2-oxopyrimidin-1(2H)-yl)-3-hydroxypropan-2-yl)oxy)methyl)phosphonate], for which the “TI (therapeutic index derived from EC50/CC50)” value in series [1] (HSV1 E377, HFF cells) is reported as 1159; in series [3] (mCMV Smith), above 3125; in series [4] (hCMV1 AD169, HFF cells) it was above 19; in series [5] (VZV Ellen, HFF cells) it was 23; in series [6], above 2753. Also, the EC50 in series [1] (setting [12]) was 10 nM; in series [3] it was below 0.3 nM; in series [2] (setting [15]), 10 nM; in series [4] (setting [16]), below 10 nM; in series [5] (setting [17]) it was 10 nM; in series [6] it was below 0.3 nM. For the same compound, in series [7] (setting [13]), the “Therapeutic index EC90/HFF Cytotoxicity 50%” value is above 15. In addition, the EC90 in series [7] (setting [14]) was below 20 nM. For the same compound, the “TI (therapeutic index derived from CC50/EC50)” value in series [2] (HSV2 G, HFF cells) turned out to be 498.
On to `N.Nc1ccn(C[C@@H](CO)OCP(=O)(O)OCCCS(=O)(=O)CCCCCCCCCCCCCC2CCC2)c(=O)n1` [Compound 122, Ammonium 3-((13-cyclobutyltridecyl)sulfonyl)propyl hydrogen ((((S)-1-(4-amino-2-oxopyrimidin-1(2H)-yl)-3-hydroxypropan-2-yl)oxy)methyl)phosphonate], for which the “TI (therapeutic index derived from EC50/CC50)” value is reported as 469 in series [1] (HSV1 E377, HFF cells); above 3125 in series [3] (mCMV Smith); above 19 in series [4] (hCMV1 AD169, HFF cells); 31 in series [5] (VZV Ellen, HFF cells); above 2209 in series [6]. Further, the half-maximal effective concentration (EC50) is 20 nM in series [1] (setting [12]); below 0.3 nM in series [3]; 140 nM in series [2] (setting [15]); below 10 nM in series [4] (setting [16]); 7 nM in series [5] (setting [17]); below 0.3 nM in series [6]. For the same compound, the “Therapeutic index EC90/HFF Cytotoxicity 50%” value in series [7] (setting [13]) is above 13. The same compound registered an EC90 in series [7] (setting [14]) below 20 nM. The “TI (therapeutic index derived from CC50/EC50)” value in series [2] (HSV2 G, HFF cells) was above 14.
On to `N.Nc1ccn(C[C@@H](CO)OCP(=O)(O)OCCCS(=O)(=O)CCCCCCCCCCCCCCC2CCC2)c(=O)n1` [Compound 123, Ammonium 3-((14-cyclobutyltetradecyl)sulfonyl)propyl (S)-(((1-(4-amino-2-oxopyrimidin-1(2H)-yl)-3-hydroxypropan-2-yl)oxy)methyl)phosphonate], for which the “TI (therapeutic index derived from EC50/CC50)” value in series [8] (HSV1 strain DM2.1 (footnote a), HFF cells) is on record as >142^a; in series [4] (hCMV1 AD169, HFF cells), above 5. The 50% effective concentration (EC50) in series [8] (setting [12]) and in series [4] (setting [16]) was below 50 nM in each case.
With `CCOC(=O)P(=O)(OCCCS(=O)(=O)CCCCCCCC1(C)COC1)OCCCS(=O)(=O)CCCCCCCC1(C)COC1` [Compound 124, Ethyl (bis(3-((7-(3-methyloxetan-3-yl)heptyl)sulfonyl)-propoxy)phosphoryl)formate], the “TI (therapeutic index derived from EC50/CC50)” value in series [1] (HSV1 E377, HFF cells) came out at 1; in series [4] (hCMV1 AD169, HFF cells), 1. In addition, the EC50 in series [1] (setting [9]) and in series [4] (setting [11]) was above 150000 nM throughout.
On to `CCCCCCCCCCCCCCCCCCS(=O)(=O)CCCOP(=O)(OCCCS(=O)(=O)CCCCCCCCCCCCCCCCCC)C(=O)OCC` [Compound 125, Ethyl (bis(3-(octadecylsulfonyl)propoxy)phosphoryl)formate], for which, in series [4] (setting [11]), the concentration giving a half-maximal response (EC50) turned out to be 132000 nM. Moreover, the “TI (therapeutic index derived from EC50/CC50)” value in series [4] (hCMV1 AD169, HFF cells) is recorded as above 1.
As to `Nc1nc(O)c2ncn(COC(CO)CO)c2n1` [Ganciclovir, reference compound], the “Therapeutic index EC90/HFF Cytotoxicity 50%” value in series [7] (setting [13]) turned out to be 1. Moreover, the concentration for an effect of 90% (EC90) in series [7] (Human betaherpesvirus 5, Human Cytomegalovirus Strain AD169 in HFF cells, read-out: EC90) was above 150000 nM. Also, the half-maximal effective concentration (EC50) in series [3] (mCMV Smith) amounted to 170 nM; in series [4] (setting [11]), 1630 nM; in series [6], 150 nM. In addition, the “TI (therapeutic index derived from EC50/CC50)” value in series [3] (mCMV Smith) is recorded as above 882; in series [4] (hCMV1 AD169, HFF cells) it was above 92; in series [6], above 1030.

Usually EC50 stands for the concentration at which the effect is half-maximal. As usually defined, the EC90 is the point of the concentration-response curve where the effect stands at 90%.
